Values of other authors in patent US20080188553A1, “NOVEL ASCORBIC ACID COMPOUNDS, METHODS OF SYNTHESIS AND APPLICATION USE THEREOF” (priority 2007, published 2008).

Settings: relative to ascorbic acid; test conditions not given

more stable than ascorbic acid: 20 times
Structure (SMILES): O=C1O[C@H]([C@@H](O)CO)C(O)=C1OS(=O)(=O)O [L-ascorbate 2-sulphate]
